Patent EP0655506B1 (priority 1994, dated 1995)

Legend:
T7 DNA polymerase Y526F = target: T1, T7 DNA polymerase Y526F (Escherichia phage T7, UniProt P00581, DEL118-145/Y526F); assay: Gel electrophoresis-based rate of incorporation of dideoxynucleotides relative to deoxynucleotides, varying the ratio of dNTPs to ddNTPs (Example 7); type: biochemical, bacteriophage T7; settings: 10 µM 4 dNTPs, ddNTP 100 to 2,000 µM; ddNTP:dNTP ratio giving fragments comparable to T7 DNA polymerase, multiplied by its Example 6 ratio
T1 construct: made in house; host or cells: strain that produces E. coli thioredoxin (lac promoter)
Method: This example is similar to that described in Example 6. While it is the preferred test for DNA polymerases that discriminate strongly against the incorporation of dideoxynucleotides (e.g. T7 DNA polymerase Y526F, E. coli DNA polymerase I and Taq DNA polymerase), it also works well with DNA polymerases that efficiently incorporate ddNMPs (e.g. T7 DNA polymerase, E. coli DNA polymerase I mutant F762Y and Taq DNA polymerase mutant F667Y).
The average length of a series of fragments is determined in one of two ways. […] The position of the front marking the appearance of visible radioactive bands is usually relatively sharp and readily observed by eye. However, it is also possible to determine such positions more precisely using the Phosphoimager to locate the position in each lane where a certain threshold of radioactivity per unit area occurs, starting at the top of the gel and moving down the gel.
Some DNA polymerases discriminate very strongly against the incorporation of dideoxynucleotides, in which case it is difficult to add sufficient ddNTPs to the reaction to clearly detect the position of the largest dideoxy-terminated fragments on a denaturing polyacrylamide gel. For such DNA polymerases, one can use an alkaline agarose gel electrophoresis to compare the lengths of the dideoxy-terminated fragments in the different series.
These tests were carried out using the six DNA polymerases described in Example 6. The reaction conditions were identical to that described in Example 6 except for the concentrations of dNTPs and ddNTPs. All reaction mixtures contained 10 µM 4 dNTPs. Each of the four ddNTP concentrations were varied by two-fold increments in the following ranges for the six DNA polymerases as follows: T7 DNA polymerase, E. coli DNA polymerase I F762Y, and Taq DNA polymerase F667Y , 0.02 µM to 1 µM, and T7 DNA polymerase Y526F, E. coli DNA polymerase I and Taq DNA polymerase, 100 to 2,000 µM. The reactions were carried out and the samples were analyzed by denaturing polyacrylamide gel electrophoresis as described in Example 6. Drying of the gel, autoradiography, and Phosphoimager analysis were as described in Example 6. The Table below summarizes the results from this experiment; the values shown for T7 DNA polymerase, E. coli DNA polymerase I F762Y, and Taq DNA polymerase F667Y are the absolute ratios obtained in Example 6 by statistical analysis of the rate of exponential decay in intensity of dideoxy-terminated fragments obtained using a 1:1 ratio of dNTPs to ddNTPs. […] This factor was multiplied by the absolute ratios obtained for T7 DNA polymerase, E. coli DNA polymerase I F762Y, and Taq DNA polymerase F667Y in Example 6 in order to obtain the values shown below for T7 DNA polymerase Y526F, E. coli DNA polymerase I and Taq DNA polymerase, respectively.

[1] = target: T2, Taq DNA polymerase (unmodified DNA polymerase from Thermus aquaticus) (Thermus aquaticus, UniProt P19821); assay: Inhibition of DNA synthesis on synthetic Primer-Template A, competition of dATP and ddATP (Example 9); type: biochemical; settings: in the presence of 10 µM dATP, 70°C, read-out: [ddATP] for 50% inhibition
T2 construct: to the gene that produces the full length Taq DNA polymerase; made in house
Method: In this example the competition between a dNTP and a ddNTP is assayed for use at a single site in a synthetic primer-template. This assay differs from the others in that it limits the comparison of the use of the two substrates to a single site, avoiding the complication of sequence-specific variability in discrimination. […]
Each reaction mixture contains 25 pmoles each of primer and template. […] The mixtures are incubated at 37°C for 1 min (70°C for thermophilic DNA polymerases), and the reactions are initiated by the addition of 5 µl aliquots (0.01 to 1 unit) of the DNA polymerase being analyzed diluted in 20 mM TrisHCl, pH 7.5, 10 mM 2-mercaptoethanol and 0.05% bovine serum albumin. […] The disks are then dried under a heat lamp and counted in a scintillation counter in 5 ml of fluor (Opti-Fluor O, Packard). From the amount of radioactivity on each disk, the amount […] incorporated was determined. […]
All reactions are carried out with a constant amount of the DNA polymerase being analyzed; the amount of DNA polymerase should be sufficient to replicate 50% of the total dCMP residues in the single-stranded region of the template in the 10 min incubation in the presence of 10 µM dATP and the absence of ddATP. […]

T1 sequence (P00581 other isoform, or with tags, fused parts or gaps DEL118-145/Y526F): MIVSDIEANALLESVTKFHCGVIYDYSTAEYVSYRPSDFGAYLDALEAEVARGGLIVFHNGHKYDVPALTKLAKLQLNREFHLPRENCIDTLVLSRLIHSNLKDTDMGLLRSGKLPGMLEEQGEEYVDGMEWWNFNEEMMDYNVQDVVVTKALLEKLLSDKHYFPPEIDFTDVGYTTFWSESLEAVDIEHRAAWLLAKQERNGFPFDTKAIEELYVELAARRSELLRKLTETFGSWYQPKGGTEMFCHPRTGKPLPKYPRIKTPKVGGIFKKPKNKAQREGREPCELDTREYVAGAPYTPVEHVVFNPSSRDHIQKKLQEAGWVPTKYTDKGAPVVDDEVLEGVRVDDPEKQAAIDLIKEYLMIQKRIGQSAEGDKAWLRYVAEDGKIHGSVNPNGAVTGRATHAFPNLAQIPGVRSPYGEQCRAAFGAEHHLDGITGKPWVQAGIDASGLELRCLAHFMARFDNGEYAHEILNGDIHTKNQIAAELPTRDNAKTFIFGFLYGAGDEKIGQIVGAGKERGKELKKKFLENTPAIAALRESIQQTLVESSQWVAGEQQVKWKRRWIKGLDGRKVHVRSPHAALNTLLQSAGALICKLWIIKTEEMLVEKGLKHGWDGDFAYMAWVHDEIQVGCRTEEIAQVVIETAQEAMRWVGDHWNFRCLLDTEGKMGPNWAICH
T1 sequence (P0AA25 2-109, stated change not applied, further chain): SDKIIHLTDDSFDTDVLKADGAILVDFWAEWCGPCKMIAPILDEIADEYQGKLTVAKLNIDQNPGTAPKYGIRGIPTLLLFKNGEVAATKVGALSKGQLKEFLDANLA
T2 sequence (P19821 whole entry): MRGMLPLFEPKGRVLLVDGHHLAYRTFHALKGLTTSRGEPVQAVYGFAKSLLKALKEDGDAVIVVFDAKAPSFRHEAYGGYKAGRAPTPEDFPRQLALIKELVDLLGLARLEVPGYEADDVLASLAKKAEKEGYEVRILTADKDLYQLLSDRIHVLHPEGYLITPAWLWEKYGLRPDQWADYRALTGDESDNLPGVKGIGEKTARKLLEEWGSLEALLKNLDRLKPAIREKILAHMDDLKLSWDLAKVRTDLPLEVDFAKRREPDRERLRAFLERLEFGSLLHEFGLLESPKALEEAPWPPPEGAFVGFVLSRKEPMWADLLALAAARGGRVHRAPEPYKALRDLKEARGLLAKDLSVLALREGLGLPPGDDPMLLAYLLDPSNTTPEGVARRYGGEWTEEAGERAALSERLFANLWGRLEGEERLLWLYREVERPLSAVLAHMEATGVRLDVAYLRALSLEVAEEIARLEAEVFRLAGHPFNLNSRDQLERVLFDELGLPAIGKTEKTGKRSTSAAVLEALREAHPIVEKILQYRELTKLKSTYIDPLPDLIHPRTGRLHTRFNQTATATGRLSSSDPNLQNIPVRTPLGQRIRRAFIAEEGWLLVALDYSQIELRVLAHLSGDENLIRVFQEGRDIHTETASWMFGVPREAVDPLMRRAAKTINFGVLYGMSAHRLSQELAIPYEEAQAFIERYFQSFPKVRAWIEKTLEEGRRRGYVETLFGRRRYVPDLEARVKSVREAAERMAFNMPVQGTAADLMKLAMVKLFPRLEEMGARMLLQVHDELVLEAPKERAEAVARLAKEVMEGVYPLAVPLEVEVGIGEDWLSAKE

With `Nc1ncnc2c1ncn2[C@H]1CC[C@@H](COP(=O)(O)OP(=O)(O)OP(=O)(O)O)O1` [ddATP] the “Incorporation Rate Ratios (dN/ddN)” value (T7 DNA polymerase Y526F) was 7,300 and the IC50 [1] was over 500 µM.
In the case of `Nc1ccn([C@H]2CC[C@@H](COP(=O)(O)OP(=O)(O)OP(=O)(O)O)O2)c(=O)n1` [ddCTP], the “Incorporation Rate Ratios (dN/ddN)” value (T7 DNA polymerase Y526F) is reported as 11,000.
In the case of `Nc1nc2c(ncn2[C@H]2CC[C@@H](COP(=O)(O)OP(=O)(O)OP(=O)(O)O)O2)c(=O)[nH]1` [ddGTP], the “Incorporation Rate Ratios (dN/ddN)” value (T7 DNA polymerase Y526F) is reported as 6,400.
In the case of `Cc1cn([C@H]2CC[C@@H](COP(=O)(O)OP(=O)(O)OP(=O)(O)O)O2)c(=O)[nH]c1=O` [ddTTP], the “Incorporation Rate Ratios (dN/ddN)” value (T7 DNA polymerase Y526F) is reported as 8,400.
